Experimental data as given in ChEMBL document CHEMBL4229402, “Kava analogues as agents for treatment of periodontal diseases: Synthesis and initial biological evaluation” (Bioorg Med Chem Lett, 2018).
Active and inactive are the calls of the source. The calls are words filed in the database; no cut-off is given here.

Columns and labels:
BMDM [1] = assay: Antiperiodontic activity in mouse bone marrow macrophages assessed as reduction in Porphyromonas gingivalis-induced TNFalpha levels at 20 to 100 ug/ml after 4 hrs by ELISA; assay type: functional
BMDM [2] = assay: Antiperiodontic activity in mouse bone marrow macrophages assessed as reduction in Porphyromonas gingivalis-induced TNFalpha levels at 100 ug/ml after 4 hrs by ELISA; assay type: functional

SMILES	Activity (BMDM [1])	Activity (BMDM [2])
CCOC(=O)C1C(=O)C=C(OC(=O)c2ccccc2)CC1(C)C (configuration not stated)	Active	–
COC1=CC(=O)O[C@@H](/C=C/c2ccccc2)C1	–	Active
